Measured values as given in patent publication US8192962B2, “Processes for detecting toxic substances” (Daikin Industries, Ltd., priority 2001, dated 2012).

Tested on: Detoxification protein genes
Test: DNA chip mRNA expression in yeast, detoxification protein genes (Table 8)
Type: cell-based, Saccharomyces cerevisiae S288C
Procedure, shortened: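 Cells were grown at 25° C. in YPD, treated at logarithmic phase for 2 h with a chemical at a concentration inhibiting growth but not causing death, and compared with untreated cultures. Labeled cDNA was hybridized to a DNA chip carrying all yeast genes, and the expression ratio was taken from scanner fluorescence.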

Measured: The level of expressed mRNA in the presence of chemical substance/The level of expressed mRNA in the absence of chemical substance

COc1cc(CNC(=O)CCCCC=CC(C)C)ccc1O [(12), 8-methyl-N-vanillyl-6-nonenamide]
2.0: yeast gene YHL040C | yeast gene YNL241C
0.7: yeast gene YDR538W | yeast gene YHR008C | yeast gene YJL101C | yeast gene YKL064W | yeast gene YLL057C | yeast gene YNL259C
0.6: yeast gene YDL168W | yeast gene YGR138C | yeast gene YGR224W | yeast gene YOR247W
1.1: yeast gene YCR083W | yeast gene YER185W | yeast gene YGR088W | yeast gene YHR053C | yeast gene YIR038C | yeast gene YLL060C
4.0: yeast gene YOR153W
1.6: yeast gene YML028W
1.7: yeast gene YBL064C | yeast gene YEL065W
1.3: yeast gene YIR002C | yeast gene YLL028W
1.2: yeast gene YGL254W | yeast gene YGR197C | yeast gene YHR055C
0.5: yeast gene YBR244W | yeast gene YML116W
0.9: yeast gene YCL069W | yeast gene YDR453C | yeast gene YDR513W | yeast gene YEL027W | yeast gene YFL050C | yeast gene YGR209C | yeast gene YHR048W | yeast gene YJR104C | yeast gene YKR066C | yeast gene YMR015C | yeast gene YMR038C | yeast gene YOL158C | yeast gene YOR251C | yeast gene YPL163C
0.8: yeast gene YBR008C | yeast gene YDR256C | yeast gene YKR105C | yeast gene YKR106W | yeast gene YLR043C | yeast gene YLR046C | yeast gene YOR031W | yeast gene YOR273C
1.0: yeast gene YBR145W | yeast gene YBR293W | yeast gene YGL013C | yeast gene YKL026C
1.5: yeast gene YCL035C | yeast gene YDL100C | yeast gene YNL239W
0.4: yeast gene YPR200C
2.6: yeast gene YHL047C
